# Assay results as given in US20240173323A1, “COMBINATION THERAPY FOR CANCER TREATMENT” (Takeda Pharmaceutical Company Limited, priority 2021, published 2024).
# “Also recorded” adds a separate entry of the source.
# System: PHTXS-13O human primary ovarian cancer xenografts
# Test: In vivo antitumor activity of Compound 1 in combination with PARP inhibitor in Patient Derived Xenograft (PDX) model
# Settings: PHTXS-13O PDX in nude mice
# Method: To investigate in vivo antitumor activity of Compound 1 in combination with PARP inhibitor, tests using Patient Derived Xenograft (PDX) model were conducted. Patient Derived Tumors were inoculated by the following Method.
# Method: Patient Derived Tumors were maintained in nude mice by subcutaneous inoculation of tumor pieces (approx. 2×2×2 mm) into nude mice. Mice with tumor size of approximately 130 mm^3 (e.g., 125-130 mm^3) for xenograft studies were randomly assigned to dose groups on the day (Day 0) before start date of dosing.
# Compound 1 (crystalline form I) was suspended in solution comprising 0.5 w/v % methylcellulose and administered orally to mice.
# Tumor size was measured by caliper and tumor volume was estimated using the equation V=(LW^2)/2, where L and W are tumor length and width, respectively and reported in cubic millimeters.
# Statistical analyses of combination effect for tumor growth was conducted as follows; […]
# For synergy analyses, the observed differences in the log tumor values were used to calculate AUC values for each animal In instances when an animal in a treatment group was removed from the study, the last observed tumor value was carried forward through all subsequent time points. The AUC for the control, or vehicle, group was calculated using the predicted values from the pairwise models described above. […]
structure (smiles),measurement,setting,value
"Cc1[nH]ncc1-c1cc2nc([C@@H]3CC4CCN3CC4)[nH]c(=O)c2s1 [Compound 1, 2-[(2S)-1-azabicyclo[2.2.2]oct-2-yl]-6-(3-methyl-1H-pyrazol-4-yl)thieno[3,2-d]pyrimidin-4(3H)-one]",antitumor activity (tumor volume) of Compound 1 combined with olaparib,"Compound 1 40 or 60 mg/kg once daily orally Day 1-14 + olaparib 25 or 50 mg/kg daily orally Days 1-14, compared to either single treatment alone (FIG. 2)",good antitumor efficacy; also recorded: strong antitumor activity
same,antitumor activity (tumor volume) of Compound 1 combined with niraparib,"Compound 1 40 or 60 mg/kg once daily orally Day 1-21 + niraparib 25 or 50 mg/kg daily orally Days 1-21, compared to either single treatment alone (FIG. 1)",good antitumor efficacy; also recorded: strong antitumor activity
